The experiment has as its target T1, human Cav3.2 channels (Homo sapiens, UniProt O95180).
T1 construct: human Cav3.2 channel ORF (Open Reading Frame) gene; expressed in transfected cells; host or cells: HEK293 cells (ATCC No. CRL-1573), pcDNA3.1(+) plasmid
Put plainly: T-type calcium blocking action: intracellular calcium (Fluo-4 AM fluorescence) in HEK293 cells steadily expressing human Cav3.2 channels. The experiment is classed as cell-based. To be noted: HEK293 cells expressing human Cav3.2; KCl-stimulated calcium influx, Fluo-4 fluorescence; Tables 1 to 3. The source says:
T-Type Calcium Blocking Action
(1) Construction of Cells Steadily Expressing Human Cav3.2 Channels
A sequence obtained by adding HindIII site and a kozak sequence (GCCACC) to the 5′-side of human Cav3.2 channel ORF (Open Reading Frame) gene and adding a KpnI site to the 3′-side of the gene, was incorporated into pcDNA3.1(+) (Thermo Fisher Scientific, #V790-20), and the plasmid was introduced into HEK293 cells (ATCC No. CRL-1573) according to the protocol of FuGENE (registered trademark) HD Transfection Reagent (Promega, #E2311).
(2) Method for Measuring Intracellular Calcium Concentration
The cells steadily expressing human Cav3.2 channels produced by testing method (1) were seeded on a 96-well plate (Dulbecco's modified Eagle medium (DMEM) medium containing 10% fetal bovine serum (FBS) was used as a medium). The cells were seeded and cultured for 48 hours under conditions of 37° C. and 5% CO2. Thereafter, the cells were washed with buffer A in order to remove the medium. Each well was treated with 80 μL of a fluorescent dye solution produced by mixing 22 μg of a fluorescent calcium indicator, Fluo-4 AM (Dojindo Laboratories, #F311), 20 μL of DMSO, 1 μL of 10% Pluronic F-127 (Thermo Fisher Scientific, #P6866), and 4 mL of buffer A. The cells were allowed to stand for 45 minutes at room temperature under light-shielded conditions, and then washed with buffer B in order to completely replace the solution. 70 μL of DMSO having the same concentration as that of a test compound as a negative control and 70 μL of a mixture containing 1 μM of a known blocker RQ-00311651 and the test compound as a positive control were each added to each well in a form of being contained in the buffer B. The test compound was dissolved in 100% DMSO and added at a final concentration of 0.1%. Then, the cells were further allowed to stand at room temperature under light-shielded conditions for 15 minutes and placed in a microplate reader EnVision (PerkinElmer). Background fluorescence was measured in each well, and then a 5 μg/mL grammicidin solution was added to buffer B at 10 μL/well. After 90 seconds, baseline fluorescence was measured. Thereafter, 83.8 mM KCl was added to buffer B at 20 μL/well, and an increase in fluorescence caused by calcium influx generated by the stimulus was measured for 10 seconds. A blocking percentage was calculated from a maximum fluorescence increase value from a baseline, a logarithmic value of a compound concentration and blockery activity were plotted, and thereby an IC50 value was calculated. In the measurement, fluorescence at 510 nm that was emitted when the cells were irradiated with excitation light at 485 nm was observed.
Buffer A: 140 mM NaCl, 5 mM KCl, 1 mM MgCl2, 0.5 mM CaCl2, 10 mM Glucose, 10 mM HEPES, pH 7.3
Buffer B: 137.9 mM Choline-Cl, 4.1 mM KCl, 1 mM MgCl2, 0.5 mM CaCl2, 10 mM Glucose, 10 mM HEPES, pH 7.3

T1 sequence (O95180 whole entry): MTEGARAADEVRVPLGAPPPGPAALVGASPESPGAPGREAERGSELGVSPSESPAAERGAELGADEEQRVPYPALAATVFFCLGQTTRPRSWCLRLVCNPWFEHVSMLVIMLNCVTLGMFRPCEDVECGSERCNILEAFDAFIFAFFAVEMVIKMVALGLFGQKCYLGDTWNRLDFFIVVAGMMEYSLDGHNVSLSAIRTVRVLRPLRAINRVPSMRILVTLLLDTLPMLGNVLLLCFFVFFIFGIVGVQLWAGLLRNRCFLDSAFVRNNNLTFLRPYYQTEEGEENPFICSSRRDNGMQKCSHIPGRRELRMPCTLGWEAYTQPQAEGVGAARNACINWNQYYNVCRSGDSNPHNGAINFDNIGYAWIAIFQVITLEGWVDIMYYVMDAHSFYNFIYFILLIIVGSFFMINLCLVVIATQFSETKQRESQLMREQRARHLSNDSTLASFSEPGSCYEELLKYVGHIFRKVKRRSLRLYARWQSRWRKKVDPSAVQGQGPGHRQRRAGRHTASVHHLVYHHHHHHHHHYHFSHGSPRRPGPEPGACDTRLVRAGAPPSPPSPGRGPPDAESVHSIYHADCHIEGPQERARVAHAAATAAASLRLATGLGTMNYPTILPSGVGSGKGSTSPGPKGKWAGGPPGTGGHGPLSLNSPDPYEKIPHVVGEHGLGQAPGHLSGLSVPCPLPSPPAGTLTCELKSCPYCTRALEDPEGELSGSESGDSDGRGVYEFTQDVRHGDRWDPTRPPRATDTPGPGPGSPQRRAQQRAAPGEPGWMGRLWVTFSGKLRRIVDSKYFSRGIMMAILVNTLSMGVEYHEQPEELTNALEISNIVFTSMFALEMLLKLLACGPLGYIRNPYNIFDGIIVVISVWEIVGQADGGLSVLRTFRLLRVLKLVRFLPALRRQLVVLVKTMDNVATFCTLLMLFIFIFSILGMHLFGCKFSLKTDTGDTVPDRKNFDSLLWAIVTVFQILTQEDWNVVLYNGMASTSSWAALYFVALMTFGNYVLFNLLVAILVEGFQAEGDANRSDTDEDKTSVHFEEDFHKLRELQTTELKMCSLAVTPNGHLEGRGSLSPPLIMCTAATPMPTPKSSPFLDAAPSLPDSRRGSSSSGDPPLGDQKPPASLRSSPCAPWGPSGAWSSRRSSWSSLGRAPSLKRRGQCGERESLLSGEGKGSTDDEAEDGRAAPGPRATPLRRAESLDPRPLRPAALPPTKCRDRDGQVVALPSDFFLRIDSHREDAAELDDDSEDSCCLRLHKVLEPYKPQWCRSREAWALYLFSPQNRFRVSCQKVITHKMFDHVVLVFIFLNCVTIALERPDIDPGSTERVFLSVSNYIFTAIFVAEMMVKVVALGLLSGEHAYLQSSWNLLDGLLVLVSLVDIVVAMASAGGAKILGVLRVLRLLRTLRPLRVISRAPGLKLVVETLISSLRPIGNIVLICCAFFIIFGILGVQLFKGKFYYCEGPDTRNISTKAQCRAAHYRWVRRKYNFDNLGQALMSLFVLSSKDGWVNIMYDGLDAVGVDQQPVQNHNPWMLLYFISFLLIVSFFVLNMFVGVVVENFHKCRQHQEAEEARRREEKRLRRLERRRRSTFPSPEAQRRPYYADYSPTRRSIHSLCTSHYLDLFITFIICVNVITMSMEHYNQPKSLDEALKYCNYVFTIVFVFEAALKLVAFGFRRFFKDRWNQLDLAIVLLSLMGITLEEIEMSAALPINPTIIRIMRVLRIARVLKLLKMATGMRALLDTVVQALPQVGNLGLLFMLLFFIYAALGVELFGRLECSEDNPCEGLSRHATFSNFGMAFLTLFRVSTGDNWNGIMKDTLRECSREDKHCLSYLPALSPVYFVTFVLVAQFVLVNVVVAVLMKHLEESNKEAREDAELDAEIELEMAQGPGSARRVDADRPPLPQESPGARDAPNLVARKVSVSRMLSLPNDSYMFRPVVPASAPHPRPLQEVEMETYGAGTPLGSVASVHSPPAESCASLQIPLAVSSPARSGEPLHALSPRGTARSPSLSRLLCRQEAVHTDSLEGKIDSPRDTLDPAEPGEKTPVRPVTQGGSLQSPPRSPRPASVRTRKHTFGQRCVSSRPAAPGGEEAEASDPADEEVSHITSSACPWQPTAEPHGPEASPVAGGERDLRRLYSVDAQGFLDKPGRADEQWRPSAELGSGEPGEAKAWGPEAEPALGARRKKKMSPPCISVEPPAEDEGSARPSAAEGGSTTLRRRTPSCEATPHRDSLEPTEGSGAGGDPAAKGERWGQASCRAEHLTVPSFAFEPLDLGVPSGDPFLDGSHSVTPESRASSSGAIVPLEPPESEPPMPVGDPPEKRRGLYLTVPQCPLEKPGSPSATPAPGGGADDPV

As to `O=C(Cc1ccc(C(F)(F)F)cc1)N[C@@H]1CCN(c2ccc(F)c(C(F)(F)F)c2)C1` [Example 184, (R)—N-(1-(4-fluoro-3-(trifluoromethyl)phenyl)pyrrolidin-3-yl)-2-(4-(trifluoromethyl)phenyl)acetamide], the concentration for half-maximal inhibition (IC50) turned out to be 3 µM. The value for `O=C(Cc1ccc2cn[nH]c2c1)N[C@@H]1CCN(c2cncc(C(F)(F)F)c2)C1` [Example 15, (R)-2-(1H-indazol-6-yl)-N-(1-(5-(trifluoromethyl)pyridin-3-yl)pyrrolidin-3-yl)acetamide] was 0.37 µM; that for `O=C(Cc1ccc(C(F)(F)F)cc1)NC1CN(c2cncc(C(F)(F)F)c2)C1` [Example 89, 2-(4-(Trifluoromethyl)phenyl)-N-(1-(5-(trifluoromethyl)pyridin-3-yl)azetidin-3-yl)acetamide] was 0.43 µM; that for `CCOC(=O)C(C)(C)Oc1cccc(N2CC[C@@H](NC(=O)Cc3ccc(C4CC4)cc3)C2)c1` [Example 177, Ethyl (R)-2-(3-(3-(2-(4-cyclopropylphenyl)acetamido)pyrrolidin-1-yl)phenoxy)-2-methylpropanoate] was 0.3 µM. Turning to `O=C(Cc1ccc(C2CC2)cc1)N[C@H]1CN(c2cncc(C(F)(F)F)c2)CC12CC2` [Example 6, (R)-2-(4-cyclopropylphenyl)-N-(5-(5-(trifluoromethyl)pyridin-3-yl)-5-azaspiro[2.4]heptan-7-yl) acetamide], the IC50 was 0.13 µM.

Turning to `O=C(N[C@@H]1CCCN(c2ccc(C(F)(F)F)cc2)C1)[C@H]1C[C@@H]1c1nc2ccccc2[nH]1` [Example 65, (1S,2S)-2-(1H-benzo[d]imidazol-2-yl)-N—((R)-1-(4-(trifluoromethyl)phenyl)piperidin-3-yl)cyclopropane-1-carboxyamide], the IC50 was found to be 8.9 µM. The value for `O=C(Cc1ccc2cc[nH]c2c1)N[C@@H]1CCN(c2nc(C(F)(F)F)cs2)C1` [Example 187, (R)-2-(1H-indol-6-yl)-N-(1-(4-(trifluoromethyl)thiazol-2-yl)pyrrolidin-3-yl)acetamide] was 0.51 µM; that for `O=C(Cc1ccc(O)cc1)N[C@@H]1CCN(c2cncc(C(F)(F)F)c2)C1` [Example 22, (R)-2-(4-hydroxyphenyl)-N-(1-(5-(trifluoromethyl)pyridin-3-yl)pyrrolidin-3-yl)acetamide] was 1.6 µM. Turning to `O=C(Cc1ccc(C2CC2)cc1)N[C@@H]1CCN(c2cncc(OCC(F)(F)F)c2)C1` [Example 126, (R)-2-(4-cyclopropylphenyl)-N-(1-(5-(2,2,2-trifluoroethoxy)pyridin-3-yl)pyrrolidin-3-yl)acetamide], the 50% inhibitory concentration (IC50) amounted to 0.83 µM. The value for `O=C(Cc1ccc(C2CC2)cc1)NC1(C(F)(F)F)CCN(c2cncc(C(F)(F)F)c2)C1` (stereo not shown) [Example 161, 2-(4-cyclopropylphenyl)-N-(3-(trifluoromethyl)-1-(5-(trifluoromethyl)pyridin-3-yl)pyrrolidin-3-yl)acetamide] was 0.26 µM. For `CC(C)c1ccc(CC(=O)NC2CCN(c3cncc(C(F)(F)F)c3)CC2)cc1` [Example 109, 2-(4-Isopropylphenyl)-N-(1-(5-(trifluoromethyl)pyridin-3-yl)piperidin-4-yl)acetamide], the IC50 worked out at 0.24 µM.

Regarding `O=C(Cc1c[nH]c2ccccc12)N[C@@H]1CCN(c2cncc(C(F)(F)F)c2)C1` [Example 78, (R)-2-(1H-indol-3-yl)-N-(1-(5-(trifluoromethyl)pyridin-3-yl)pyrrolidin-3-yl)acetamide], the IC50 came to 0.27 µM.

For `O=C(N[C@@H]1CCN(c2ccc(C(F)(F)F)nc2)C1)[C@H]1C[C@@H]1c1nc2cc(F)ccc2o1` [Example 51], the half-inhibitory concentration (IC50) was determined as 0.12 µM. To `O=C(N[C@@H]1CCN(c2cncc(C(F)(F)F)c2)C1)C1CC1c1ccc(F)c(F)c1` (single isomer, unassigned) [Example 107A] belongs 0.0047 µM; to `O=C(N[C@@H]1CCN(c2ccc(C(F)(F)F)nc2)C1)C1CC1c1c[nH]c2ccccc12` (single isomer, unassigned) [Example 66], 0.069 µM; to `O=C(Cc1ccc(Br)cc1)N[C@@H]1CCN(c2cncc(C(F)(F)F)c2)C1` [Example 171, (R)-2-(4-bromophenyl)-N-(1-(5-(trifluoromethyl)pyridin-3-yl)pyrrolidin-3-yl)acetamide], 0.11 µM.

Regarding `O=C(Cc1ccc(N2CCC(F)(F)C2)cc1)N[C@@H]1CCN(c2ccc(C(F)(F)F)nc2)C1` [Example 84, (R)-2-(4-(3,3-difluoropyrrolidin-1-yl)phenyl)-N-(1-(6-(trifluoromethyl)pyridin-3-yl)pyrrolidin-3-yl)acetamide], the IC50 is 0.18 µM.

Consider `CC(C)c1ccc(CC(=O)N[C@H]2CCN(c3cncc(C(F)(F)F)c3)C2)cc1` [Example 114, (S)-2-(4-isopropylphenyl)-N-(1-(5-(trifluoromethyl)pyridin-3-yl)pyrrolidin-3-yl)acetamide], for which the 50% inhibitory concentration (IC50) was 1.2 µM. To `O=C(N[C@@H]1CCN(c2cncc(C(F)(F)F)c2)C1)C1(c2ccc(Cl)cc2)CC1` [Example 24, (R)-1-(4-chlorophenyl)-N-(1-(5-(trifluoromethyl)pyridin-3-yl)pyrrolidin-3-yl)cyclopropane-1-carboxyamide] belongs 0.72 µM; to `O=C(Cc1ccc(N2CCOCC2)cc1)N[C@@H]1CCN(c2ccc(C(F)(F)F)nc2)C1` [Example 42, (R)-2-(4-morpholinophenyl)-N-(1-(6-(trifluoromethyl)pyridin-3-yl)pyrrolidin-3-yl)acetamide], 0.25 µM; to `O=C(N[C@@H]1CCN(c2ccc3cc(F)ccc3n2)C1)[C@H]1C[C@@H]1c1nc2ccccc2[nH]1` [Example 74, (1S,2S)-2-(1H-benzo[d]imidazol-2-yl)-N—((R)-1-(6-fluoroquinolin-2-yl)pyrrolidin-3-yl)cyclopropane-1-carboxyamide], 0.13 µM. The value for `O=C(Cc1ccc(N2C3CCC2COC3)cc1)N[C@@H]1CCN(c2ccc(C(F)(F)F)nc2)C1` [Example 150, 2-(4-(3-Oxa-8-azabicyclo[3.2.1]octan-8-yl)phenyl)-N—((R)-1-(6-(trifluoromethyl)pyridin-3-yl)pyrrolidin-3-yl)acetamide] was 0.4 µM; that for `O=C(Cc1ccc(C(F)(F)F)nc1)N[C@@H]1CCN(c2cncc(C(F)(F)F)c2)C1` [Example 82, (R)-2-(6-(trifluoromethyl)pyridin-3-yl)-N-(1-(5-(trifluoromethyl)pyridin-3-yl)pyrrolidin-3-yl)acetamide] was 0.75 µM; that for `CC(=O)OCC1(NC(=O)Cc2ccc(C3CC3)cc2)CCN(c2cncc(C(F)(F)F)c2)C1` (stereo not shown) [Example 104, (3-(2-(4-cyclopropylphenyl)acetamido)-1-(5-(trifluoromethyl)pyridin-3-yl)pyrrolidin-3-yl)methyl acetate] was 0.46 µM.

As for `O=C(Cc1ccc(N2CCCC2)cc1)N[C@@H]1CCN(c2cncc(C(F)(F)F)c2)C1` [Example 87, (R)-2-(4-(pyrrolidin-1-yl)phenyl)-N-(1-(5-(trifluoromethyl)pyridin-3-yl)pyrrolidin-3-yl)acetamide], the IC50 amounted to 0.0054 µM. As to `O=C(Cc1ccc(N2CC3CC2CO3)cc1)N[C@@H]1CCN(c2ccc(C(F)(F)F)nc2)C1` (single isomer, unassigned) [Example 166], the half-inhibitory concentration (IC50) is 0.22 µM.

In the case of `O=C(Cc1ccc2ncccc2c1)N[C@@H]1CCN(c2cncc(C(F)(F)F)c2)C1` [Example 77, (R)-2-(quinolin-6-yl)-N-(1-(5-(trifluoromethyl)pyridin-3-yl)pyrrolidin-3-yl)acetamide], the IC50 turned out to be 0.2 µM.

Turning to `Cn1nc(CC(=O)N[C@@H]2CCN(c3cncc(C(F)(F)F)c3)C2)cc1C(F)(F)F` [Example 81, (R)-2-(1-methyl-5-(trifluoromethyl)-1H-pyrazol-3-yl)-N-(1-(5-(trifluoromethyl)pyridin-3-yl)pyrrolidin-3-yl) acetamide], the half-maximal inhibitory concentration (IC50) is 0.55 µM.
